Results reported in patent US20100144712A1 (priority 2007, published 2010).
Values after ≈ are worked out from the molar mass of the structure shown.

Experiments:
Assay type in all cases: cell-based
[1] = tested on: Candida albican ATCC 64124; test: In vitro antifungal activity (MIC80), Candida albican ATCC 64124; conditions: Candida, ATCC64124; Table 2, 64124; read-out: Minimal inhibitory concentration (MIC80)
Experimental: (§1) In vitro antifungal activities of the inventive antifungal compounds were evaluated using test strains including Candida albican (ATCC 90873, 204276, 62342, 64124, 64550, 96901, MYA-573, MYA-574, MYA-575, MYA-576, MYA-1003) and Aspergillus fumigatus (ATCC 16424). Test samples and positive control samples were prepared by dissolving the inventive compounds and comparative compounds, i.e., amphotericin B, fluconazole and itraconazole, in DMSO, respectively, and each successively diluted with medium to obtain test and positive control solutions having test compound concentrations of 0.125 μg/ml to a maximum concentration not generating turbidity. Minimal inhibitory concentration (MIC80) of each compound was determined as the lowest concentration of the test compounds required to reduce growth by 80% relative to a control strain not treated.
(§2) 1) Test strain: Candida albican ATCC 90873, 204276, 62342, 64124, 64550, 96901, MYA-573, MYA-574, MYA-575, MYA-576, MYA-1003, and Aspergillus fumigatus ATCC 16424 were commercially obtained from The American Type Culture Collection (ATCC) and subcultured in CHEMON Co. Ltd. (amphotericin B was commercially purchased from Sigma, and fluconazole and itraconazole were prepared according to methods described in British Patent No. 2,099,818; and U.S. Pat. No. 4,267,179, respectively).
(§3) 2) Medium and culture condition: Candida albican was cultured in Sabourad Dextrose Agar, YM Agar or Potato Dextrose Agar according to ATCC information at a temperature of 37° C., 35° C., 30° C. or 25° C. Aspergillus fumigatus was cultured in Malt Extract Agar or Potato Dextrose Agar at a temperature ranging from 24 to 27° C.
(§4) 3) Preparation of test samples: the inventive compounds and comparative compounds were each diluted with DMSO to obtain 1 to 2 ml of a test sample in a concentration of 100-folds of the determining maximum concentration (256 μg/ml).
(§5) The test samples were each successively diluted with RPMI 1640 to obtain test solutions having concentrations of […] in a 12×75 mm sterilized disposable culture tube. The final concentration of DMSO was adjusted to […] (v/v).
(§6) 5) Preparation of strain solution and inoculation
(§7) Candida albican strains were each subcultured in Sabourad Dextrose Agar, YM Agar or Potato Dextrose Agar medium at 35° C. for 2˜3 days. In the case of yeasts, a single colony was taken from prominent colonies and suspended in 0.85% sterile physiological saline solution and the turbidity of the suspension was adjusted to 80˜82% at 530 nm, and then diluted 50-fold with RPMI 1640 medium to 1.0×10^3˜5.0×10^3 CFU/ml. The turbidity of fungi was adjusted to 80˜82% and the suspension was diluted 50-fold to […]. Aspergillus fumigatus strains were subcultured in Malt Extract Agar for 7˜10 days, and a single colony was taken from prominent colonies and suspended in 0.85% sterile physiological saline solution and the suspension was adjusted to 0.108 at 530 nm, and then diluted 1000-fold with RPMI 1640 medium to 0.4×10^2˜5×10^4 CFU/ml. The turbidity of fungi was adjusted to 80˜82% and the suspension was diluted 50-fold to 0.4102˜0.5104 CFU/ml.
(§8) The strain solutions thus obtained were each seeded into a sterilized 96-well microplate, 0.1 ml of each test solution were added thereto, and […] of alamarblue was treated to each well (Biosource, #DAL1100). This procedure was repeated 2 times.
(§9) Minimal inhibitory concentration (MIC80) of each compound was determined as the lowest concentration of the test compounds required to reduce growth by 80% relative to a control strain not treated.

[2] = tested on: Candida albican ATCC MYA-575; test: In vitro antifungal activity (MIC80), Candida albican ATCC MYA-575; conditions: Candida; Table 2, MYA 575; read-out: Minimal inhibitory concentration (MIC80)
Experimental: as §1, §2, §3, §4, §5, §6, §7, §8, §9

[3] = tested on: Candida albican ATCC 64550; test: In vitro antifungal activity (MIC80), Candida albican ATCC 64550; conditions: Candida, ATCC64550; Table 2, 64550; read-out: Minimal inhibitory concentration (MIC80)
Experimental: as §1, §2, §3, §4, §5, §6, §7, §8, §9

[4] = tested on: Candida albican ATCC MYA-573; test: In vitro antifungal activity (MIC80), Candida albican ATCC MYA-573; conditions: Candida; Table 2, MYA 573; read-out: Minimal inhibitory concentration (MIC80)
Experimental: as §1, §2, §3, §4, §5, §6, §7, §8, §9

[5] = tested on: Candida albican ATCC MYA-574; test: In vitro antifungal activity (MIC80), Candida albican ATCC MYA-574; conditions: Candida; Table 2, MYA 574; read-out: Minimal inhibitory concentration (MIC80)
Experimental: as §1, §2, §3, §4, §5, §6, §7, §8, §9

[6] = tested on: Candida albican ATCC 96901; test: In vitro antifungal activity (MIC80), Candida albican ATCC 96901; conditions: Candida, ATCC96901; Table 2, ATCC 96901; read-out: Minimal inhibitory concentration (MIC80)
Experimental: as §1, §2, §3, §4, §5, §6, §7, §8, §9

[7] = tested on: Candida albican ATCC MYA-576; test: In vitro antifungal activity (MIC80), Candida albican ATCC MYA-576; conditions: Candida; Table 2, MYA 576; read-out: Minimal inhibitory concentration (MIC80)
Experimental: as §1, §2, §3, §4, §5, §6, §7, §8, §9

[8] = tested on: Candida albican ATCC MYA-1003; test: In vitro antifungal activity (MIC80), Candida albican ATCC MYA-1003; conditions: Candida; Table 2, MYA 1003; read-out: Minimal inhibitory concentration (MIC80)
Experimental: as §1, §2, §3, §4, §5, §6, §7, §8, §9

[9] = tested on: Candida albican ATCC 90873; test: In vitro antifungal activity (MIC80), Candida albican ATCC 90873; conditions: Candida, ATCC90873; Table 2, ATCC 90873; read-out: Minimal inhibitory concentration (MIC80)
Experimental: as §1, §2, §3, §4, §5, §6, §7, §8, §9

[10] = tested on: Candida albican ATCC 62342; test: In vitro antifungal activity (MIC80), Candida albican ATCC 62342; conditions: Candida, ATCC62342; Table 2, 62342; read-out: Minimal inhibitory concentration (MIC80)
Experimental: as §1, §2, §3, §4, §5, §6, §7, §8, §9

Compound | MIC80 [1] [µg/mL] | MIC80 [2] [µg/mL] | MIC80 [3] [µg/mL] | MIC80 [4] [µg/mL] | MIC80 [5] [µg/mL] | MIC80 [6] [µg/mL] | MIC80 [7] [µg/mL] | MIC80 [8] [µg/mL] | MIC80 [9] [µg/mL] | MIC80 [10] [µg/mL]
C[C@@H](N1CCN(c2nc3cc(Cl)ccc3o2)CC1)[C@](O)(Cn1cncn1)c1ccc(F)cc1F [Example 5, (2R,3R)-3-(4-(5-chlorobenzooxazol-2-yl)piperazin-1-yl)-2-(2,4-difluorophenyl)-1-(1H-1,2,4-triazol-1-yl)butan-2-ol] | 2 (≈ 4.09 µM) | 0.125 (≈ 0.256 µM) | 0.5 (≈ 1.02 µM) | 0.25 (≈ 0.511 µM) | 0.5 (≈ 1.02 µM) | 2 (≈ 4.09 µM) | 0.125 (≈ 0.256 µM) | > 128 | 0.125 (≈ 0.256 µM) | 0.125 (≈ 0.256 µM)
C[C@@H](N1CCN(c2nc3ccc(N4CCCCC4)cc3s2)CC1)[C@](O)(Cn1cncn1)c1ccc(F)cc1F [Example 10, (2R,3R)-2-(2,4-difluorophenyl)-3-(4-(6-(piperidin-1-yl)benzothiazol-2-yl)piperazin-1-yl)-1-(1H-1,2,4-triazol-1-yl)butan-2-ol] | 4 (≈ 7.22 µM) | 0.125 (≈ 0.226 µM) | 0.5 (≈ 0.903 µM) | 0.5 (≈ 0.903 µM) | 0.5 (≈ 0.903 µM) | 4 (≈ 7.22 µM) | 0.125 (≈ 0.226 µM) | > 128 | 0.125 (≈ 0.226 µM) | 0.125 (≈ 0.226 µM)
C[C@@H](N1CCN(c2nc3ccc(N(C)CCN4CCOCC4)cc3s2)CC1)[C@](O)(Cn1cncn1)c1ccc(F)cc1F [Example 13, (2R,3R)-3-(4-(6-(N-methyl-N-(2-morpholinoethyl)amino)benzothiazol-2-yl)piperazin-1-yl)-2-(2,4-difluorophenyl)-1-(1H-1,2,4-triazol-1-yl)butan-2-ol] | 2 (≈ 3.26 µM) | 0.125 (≈ 0.204 µM) | 0.5 (≈ 0.816 µM) | 0.25 (≈ 0.408 µM) | 16 (≈ 26.1 µM) | 8 (≈ 13.1 µM) | 0.125 (≈ 0.204 µM) | 32 (≈ 52.2 µM) | 0.125 (≈ 0.204 µM) | 0.25 (≈ 0.408 µM)
C[C@@H](N1CCCN(c2nc3ccccc3o2)CC1)[C@](O)(Cn1cncn1)c1ccc(F)cc1F [Example 15, (2R,3R)-3-(4-(benzooxazol-2-yl)-1,4-diazepan-1-yl)-2-(2,4-difluorophenyl)-1-(1H-1,2,4-triazol-1-yl)butan-2-ol] | 8 (≈ 17.1 µM) | 0.125 (≈ 0.267 µM) | 2 (≈ 4.27 µM) | 0.5 (≈ 1.07 µM) | 1 (≈ 2.13 µM) | 16 (≈ 34.2 µM) | 0.125 (≈ 0.267 µM) | > 128 | 0.125 (≈ 0.267 µM) | 0.25 (≈ 0.534 µM)
C[C@@H](N1CCN(c2cccc(OCc3ccccc3)n2)CC1)[C@](O)(Cn1cncn1)c1ccc(F)cc1F [Example 20, (2R,3R)-3-(4-(6-(benzyloxy)pyridin-2-yl)piperazin-1-yl)-2-(2,4-difluorophenyl)-1-(1H-1,2,4-triazol-1-yl)butan-2-ol] | 8 (≈ 15.4 µM) | 0.25 (≈ 0.48 µM) | 1 (≈ 1.92 µM) | 0.5 (≈ 0.96 µM) | 1 (≈ 1.92 µM) | 2 (≈ 3.84 µM) | 0.25 (≈ 0.48 µM) | > 128 | 0.125 (≈ 0.24 µM) | 1 (≈ 1.92 µM)

More lines, now with the values ahead:

MIC80 [1] [µg/mL] | MIC80 [2] [µg/mL] | MIC80 [3] [µg/mL] | MIC80 [4] [µg/mL] | MIC80 [5] [µg/mL] | MIC80 [6] [µg/mL] | MIC80 [7] [µg/mL] | MIC80 [8] [µg/mL] | MIC80 [9] [µg/mL] | MIC80 [10] [µg/mL] | Compound
> 128 | 0.25 (≈ 0.516 µM) | 8 (≈ 16.5 µM) | 8 (≈ 16.5 µM) | 128 (≈ 264 µM) | > 128 | 0.25 (≈ 0.516 µM) | > 128 | 0.125 (≈ 0.258 µM) | 8 (≈ 16.5 µM) | C[C@@H](N1CCN(c2cccc(OCC3CC3)n2)CC1)[C@](O)(Cn1cncn1)c1ccc(F)cc1F [Example 21, (2R,3R)-3-(4-(6-(cyclopropylmethoxy)pyridin-2-yl)piperazin-1-yl)-2-(2,4-difluorophenyl)-1-(1H-1,2,4-triazol-1-yl)butan-2-ol]
> 128 | 0.5 (≈ 1 µM) | 64 (≈ 128 µM) | 32 (≈ 64.2 µM) | > 128 | > 128 | 0.5 (≈ 1 µM) | > 128 | 0.5 (≈ 1 µM) | 128 (≈ 257 µM) | C[C@@H](N1CCN(c2cccc(OC3CCCC3)n2)CC1)[C@](O)(Cn1cncn1)c1ccc(F)cc1F [Example 22, (2R,3R)-3-(4-(6-(cyclopentyloxy)pyridin-2-yl)piperazin-1-yl)-2-(2,4-difluorophenyl)-1-(1H-1,2,4-triazol-1-yl)butan-2-ol]
> 128 | 0.5 (≈ 1.03 µM) | > 128 | > 128 | > 128 | > 128 | 0.5 (≈ 1.03 µM) | > 128 | 0.25 (≈ 0.514 µM) | > 128 | CCCCOc1cccc(N2CCN([C@H](C)[C@](O)(Cn3cncn3)c3ccc(F)cc3F)CC2)n1 [Example 23, (2R,3R)-3-(4-(6-(butyloxy)pyridin-2-yl)piperazin-1-yl)-2-(2,4-difluorophenyl)-1-(1H-1,2,4-triazol-1-yl)butan-2-ol]
> 128 | 0.5 (≈ 1.06 µM) | 2 (≈ 4.23 µM) | 4 (≈ 8.46 µM) | 8 (≈ 16.9 µM) | > 128 | 0.25 (≈ 0.529 µM) | > 128 | 0.125 (≈ 0.265 µM) | 8 (≈ 16.9 µM) | CC(C)Oc1cccc(N2CCN([C@H](C)[C@](O)(Cn3cncn3)c3ccc(F)cc3F)CC2)n1 [Example 24, (2R,3R)-2-(2,4-difluorophenyl)-3-(4-(6-(isopropyloxy)pyridin-2-yl)piperazin-1-yl)-1-(1H-1,2,4-triazol-1-yl)butan-2-ol]
> 128 | 1 (≈ 1.9 µM) | > 128 | 2 (≈ 3.8 µM) | > 128 | > 128 | 0.5 (≈ 0.949 µM) | > 128 | 0.25 (≈ 0.475 µM) | > 128 | C[C@@H](N1CCN(c2cccc(OCc3cccs3)n2)CC1)[C@](O)(Cn1cncn1)c1ccc(F)cc1F [Example 25, (2R,3R)-2-(2,4-difluorophenyl)-3-(4-(6-(thiophen-2-ylmethoxy)pyridin-2-yl)piperazin-1-yl)-1-(1H-1,2,4-triazol-1-yl)butan-2-ol]
> 128 | 0.5 (≈ 0.92 µM) | 8 (≈ 14.7 µM) | 8 (≈ 14.7 µM) | 16 (≈ 29.4 µM) | > 128 | 0.5 (≈ 0.92 µM) | > 128 | 0.25 (≈ 0.46 µM) | 4 (≈ 7.36 µM) | C[C@@H](N1CCN(c2cccc(OCCN3CCOCC3)n2)CC1)[C@](O)(Cn1cncn1)c1ccc(F)cc1F [Example 26, (2R,3R)-2-(2,4-difluorophenyl)-3-(4-(6-(2-morpholinoethoxy)pyridin-2-yl)piperazin-1-yl)-1-(1H-1,2,4-triazol-1-yl)butan-2-ol]
